From patent US20260250337A1, “HYBRID ANTIMICROBIAL PEPTIDES” (UNIVERSIDADE FEDERAL DO ABC, priority 2023, published 2026)
“Also recorded” adds a separate entry of the source. No end group written: not given here.

Legend:
M. luteus A270 = test: Liquid growth inhibition assay, MIC; format: cell-based, Micrococcus luteus; settings: 37° C., 18 h
Method: (§1) Initially, the antimicrobial activity was determined by liquid growth inhibition assays, as previously described by Pedron et al.^62. Briefly, Peptone Broth and Potato Dextrose Broth (Invitrogen) were used for antibacterial and antifungal assays, respectively. Two-fold serial dilutions of peptides (0.09-50 μmol L^−1) and microorganisms (Serratia marcescens ATCC 4112, Enterobacter cloacae β-12, Micrococcus luteus A270, Bacillus megaterium ATCC 10778, Bacillus subtilis ATCC 6633, Candida albicans MDM8, and Candida tropicalis IOC 4560) were incubated at 37° C. for 18 h (for bacteria) or 24 h (for fungi), and microbial growth was assessed by absorbance measurements at 595 nm. Experiments were performed in three biological repeats.

[1] = tested on: S. epidermidis ATCC 12228; test: Liquid growth inhibition assay, MIC; format: cell-based; settings: 37° C., 18 h
B. megaterium ATCC 10778 = test: Liquid growth inhibition assay, MIC; format: cell-based, Bacillus megaterium; settings: 37° C., 18 h
Method: as §1

S. marcescens ATCC 4112 = test: Liquid growth inhibition assay, MIC; format: cell-based, Serratia marcescens; settings: 37° C., 18 h
Method: as §1

E. cloacae β-12 = test: Liquid growth inhibition assay, MIC; format: cell-based, Enterobacter cloacae; settings: 37° C., 18 h
Method: as §1

C. albicans MDM8 = test: Liquid growth inhibition assay, MIC (antifungal); format: cell-based, Candida albicans; settings: 37° C., 24 h
Method: as §1

C. tropicalis IOC 4560 = test: Liquid growth inhibition assay, MIC (antifungal); format: cell-based, Candida tropicalis; settings: 37° C., 24 h
Method: as §1

human erythrocytes = test: Hemolytic activity assay; format: cell-based; settings: for hemolytic activity: 0.1 to 100 μmol L^−1; for MHC / Hemolytic activity, concentration of peptide needed to kill 10% of red blood cells: human erythrocytes, 1 h; for MHC: room temperature, concentration with approximately 0% of hemolytic activity
Method: Method. Assays against freshly collected human erythrocytes were performed following protocols described by Pedron et al. 62. Briefly, peptide aliquots at concentrations ranging from 0.1 to 100 μmol L−1 were incubated with a suspension of erythrocytes at room temperature for 1 h. The samples were then centrifuged, and the absorbance of the supernatant was measured at 405 nm. The MHC (maximal non-hemolytic concentration) was determined as the maximal concentration at which 100% of the erythrocytes were viable. The surfactant SDS and PBS buffer were used as positive88, 89 and negative controls, respectively. Sodium heparin was used as an anticoagulant when collecting human blood. Three biological repeats were performed.

[2] = Resistance to degradation in fetal bovine serum; format: in vitro ADME; settings: for remaining at 0.5 h: read-out: remaining peptide, 30 min; for remaining at 1 h: read-out: remaining peptide, 1 h; for remaining at 2 h: read-out: remaining peptide, 2 h
Method: The resistance to proteolytic degradation of the hybrid peptides was assessed by exposing them for 6 h to serum peptidases in a fetal bovine serum solution^68, 69 (FIG. 5a and Table S4). The peptide degradation kinetics were calculated by integrating the peak area of the peak in relation to the peptide at the beginning of the experiment (time=0) and comparing it to the integrated peak area relative to the peptides after exposure to the enzymes at time points: 0.5, 1, 2, 4, and 6 h (FIG. 5a and Table S4). […] However, AV was resistant to degradation against proteases, with almost 40% peptide content remaining after 4 h of exposure (FIG. 5a and Table S4). […] VP was almost entirely degraded after 30 min (22% of peptide remaining). […] D-amino acid substitutions have been used as alternatives to prevent the degradation of AMPs. For example, Qiu et. al. described a protonectin analog with a D-Lys residue in position 10 as an alternative to protonectin; this analog is not degraded and has higher antimicrobial activity against bacteria and fungi than the original peptide.
Methods. Stability assays were performed following the protocol described by Torres et al.^71. Briefly, a peptide solution was added to GIBCO fetal bovine serum diluted to 25% in water and kept at 37° C. The degradation kinetics were monitored by liquid chromatography and the percentage of peptide remaining was calculated by integrating the peptide peak area. The experiments were performed as three independent replicates, and aliquots were taken at 0, 0.5, 1, 2, 4, and 6 h.

bacterial strains = test: Antimicrobial activity over the panel of strains; format: cell-based; settings: range over strains tested
Method: as §1
(§2) Method. The minimal inhibitory concentration (MIC) against the ESKAPE pathogens was determined using the broth microdilution method^81, 82 in Luria-Bertani (LB) medium. The MIC value was defined as the lowest concentration of peptide at which no microbial growth was observed. A. baumannii ATCC19606, E. coli ATCC11775, E. coli AIC221, E. coli AIC222, K. pneumoniae ATCC13883, S. aureus ATCC12600 P. aeruginosa PAO1, and P. aeruginosa PA14 were incubated on agar plates, and after 24 h, three isolated colonies were inoculated to 5 mL of Luria-Bertani (LB) broth and maintained at 37° C. overnight with shaking. Peptides were then added to 96-well polystyrene microtiter plates at concentrations ranging from 0 to 128 μmol L^−1, and 5×10^5 CFU mL^−1 of each bacterium was inoculated in each well. The plates were incubated at 37° C. for 24 h. Bacterial growth was measured using a microplate reader at 610 nm. Three independent replicates were performed.

A. baumannii ATCC19606 = test: Broth microdilution MIC, ESKAPE pathogens; format: cell-based; settings: LB, 37° C., 24 h
Method: as §2

E. coli AIC221 = test: Broth microdilution MIC, ESKAPE pathogens; format: cell-based; settings: LB, 37° C., 24 h
Method: as §2

E. coli AIC222 = test: Broth microdilution MIC, ESKAPE pathogens; format: cell-based; settings: LB, 37° C., 24 h
Method: as §2

E. coli ATCC11775 = test: Broth microdilution MIC, ESKAPE pathogens; format: cell-based; settings: LB, 37° C., 24 h
Method: as §2

K. pneumoniae ATCC13883 = test: Broth microdilution MIC, ESKAPE pathogens; format: cell-based; settings: LB, 37° C., 24 h
Method: as §2

P. aeruginosa PA14 = test: Broth microdilution MIC, ESKAPE pathogens; format: cell-based; settings: LB, 37° C., 24 h
Method: as §2

P. aeruginosa PAO1 = test: Broth microdilution MIC, ESKAPE pathogens; format: cell-based; settings: LB, 37° C., 24 h
Method: as §2

S. aureus ATCC12600 = test: Broth microdilution MIC, ESKAPE pathogens; format: cell-based; settings: LB, 37° C., 24 h
Method: as §2

[3] = tested on: MCF-7 human breast cancer cells; test: Anticancer activity, MTT assay; format: cell-based; settings: MTT
Method: The anticancer activity assays were performed using MCF-10A human breast epithelial cells and MCF-7 mammary cancer cells as previously described by Pedron et al. 86. Briefly, the day before treatment, the cells were incubated at 37° C. and 5% CO2 for 24 h. The cells were treated with peptides ranging from 12.5 to 100 μmol L^−1 (MCF10-A cells) and 0.8 to 100 μmol L^−1 (MCF-7 cells) for 4 h and 24 h at 37° C., and cell viability was measured using 3-(4,5-Dimethylthiazol-2-yl)-2,5-diphenyltetrazolium bromide (MTT) assays 87. Three independent replicates were performed in each case.

[4] = bovine, fetal bovine serum, 25% in water, fetal bovine serum 25% in water, 37° C., 30 min
[5] = bovine, fetal bovine serum, 25% in water, fetal bovine serum 25% in water, 37° C.

FLGSLWRKAGTVF-NH2 [VD]
MIC M. luteus A270 (M. luteus A270): 25 µM | MIC S. epidermidis ATCC 12228 [1]: >50 µM | MIC B. megaterium ATCC 10778 (B. megaterium ATCC 10778): 6.3 µM | MIC S. marcescens ATCC 4112 (S. marcescens ATCC 4112): 12.5 µM | MIC E. cloacae β-12 (E. cloacae β-12): >50 µM | MIC C. albicans MDM8 (C. albicans MDM8): 25 µM | MIC C. tropicalis IOC 4560 (C. tropicalis IOC 4560): 6.3 µM | hemolytic activity (human erythrocytes): minimal hemolytic activity; also recorded: no hemolytic activity was detected | MHC (human erythrocytes): >100 µmol/L | remaining at 0.5 h [2, 4]: ~10% | remaining at 6 h ([2]; bovine, fetal bovine serum, 25% in water, fetal bovine serum 25% in water, 37° C., 6 h, read-out: remaining peptide, 6 h): ~50% | resistance to degradation ([2]; fetal bovine serum): the greatest resistance to proteolytic degradation | MIC range of the peptide over the strains (bacterial strains): 6.3 to 25 µM

FLGTLWGGAKGVF-NH2 [VP]
MIC M. luteus A270 (M. luteus A270): >50 µM | MIC S. epidermidis ATCC 12228 [1]: >50 µM | MIC B. megaterium ATCC 10778 (B. megaterium ATCC 10778): >50 µM | MIC S. marcescens ATCC 4112 (S. marcescens ATCC 4112): >50 µM | MIC E. cloacae β-12 (E. cloacae β-12): >50 µM | MIC C. albicans MDM8 (C. albicans MDM8): >50 µM | MIC C. tropicalis IOC 4560 (C. tropicalis IOC 4560): >50 µM | hemolytic activity (human erythrocytes): minimal hemolytic activity | Hemolytic activity, concentration of peptide needed to kill 10% of red blood cells (human erythrocytes): 100 µmol/L | MHC (human erythrocytes): >100 µmol/L | MIC A. baumannii ATCC19606 (A. baumannii ATCC19606): 128 µM | MIC E. coli AIC221 (E. coli AIC221): 128 µM | MIC E. coli AIC222 (E. coli AIC222): 128 µM | MIC E. coli ATCC11775 (E. coli ATCC11775): 128 µM | MIC K. pneumoniae ATCC13883 (K. pneumoniae ATCC13883): 128 µM | MIC P. aeruginosa PA14 (P. aeruginosa PA14): 128 µM | MIC P. aeruginosa PAO1 (P. aeruginosa PAO1): 128 µM | MIC S. aureus ATCC12600 (S. aureus ATCC12600): 128 µM | remaining at 0.5 h [2, 4]: 22% | remaining at 1 h [2, 5]: < 20% | remaining at 2 h [2, 5]: < 10% | remaining peptide, 30 min ([2]; fetal bovine serum 25% in water, 37° C., 30 min): ~20%

H-GLLKRIKTLL-NH2 [Anoplin, reference compound]
MIC M. luteus A270 (M. luteus A270): 1.6 µM | MIC S. epidermidis ATCC 12228 [1]: 6.3 µM | MIC B. megaterium ATCC 10778 (B. megaterium ATCC 10778): 0.8 µM | MIC S. marcescens ATCC 4112 (S. marcescens ATCC 4112): 6.3 µM | MIC E. cloacae β-12 (E. cloacae β-12): 3.1 µM | MIC C. albicans MDM8 (C. albicans MDM8): 1.6 µM | MIC C. tropicalis IOC 4560 (C. tropicalis IOC 4560): 1.6 µM | Hemolytic activity, concentration of peptide needed to kill 10% of red blood cells (human erythrocytes): 50 µmol/L | MHC (human erythrocytes): 50 µmol/L | remaining at 0.5 h [2, 4]: ~20% | remaining at 1 h [2, 5]: ~20% | remaining at 2 h [2, 5]: ~10%

ILGTILGLLKGL-NH2 [Protonectin, reference compound]
MIC M. luteus A270 (M. luteus A270): 3.1 µM | MIC S. epidermidis ATCC 12228 [1]: 25 µM | MIC B. megaterium ATCC 10778 (B. megaterium ATCC 10778): 3.1 µM | MIC S. marcescens ATCC 4112 (S. marcescens ATCC 4112): 6.3 µM | MIC E. cloacae β-12 (E. cloacae β-12): 25 µM | MIC C. albicans MDM8 (C. albicans MDM8): 12.5 µM | MIC C. tropicalis IOC 4560 (C. tropicalis IOC 4560): 12.5 µM | Hemolytic activity, concentration of peptide needed to kill 10% of red blood cells (human erythrocytes): 12.5 µmol/L | MHC (human erythrocytes): 12.5 µmol/L | MCF-7 4 h LD50 ([3]; MCF-7, 4 h): 25 µmol/L | MCF-7 24 h LD50 ([3]; MCF-7, 24 h): 25 µmol/L | MIC A. baumannii ATCC19606 (A. baumannii ATCC19606): 16 µM | MIC E. coli AIC221 (E. coli AIC221): 16 µM | MIC E. coli AIC222 (E. coli AIC222): 8 µM | MIC E. coli ATCC11775 (E. coli ATCC11775): 16 µM | MIC K. pneumoniae ATCC13883 (K. pneumoniae ATCC13883): 64 µM | MIC P. aeruginosa PA14 (P. aeruginosa PA14): 128 µM | MIC P. aeruginosa PAO1 (P. aeruginosa PAO1): 128 µM | MIC S. aureus ATCC12600 (S. aureus ATCC12600): 8 µM | resistance to degradation ([2]; fetal bovine serum): quickly degraded
